Source: ChEMBL document CHEMBL1141772, “Oxygenated terpenoids from a formosan soft coral Sinularia gibberosa” (2005)
In brackets after ≈: the same amount, converted by molar mass. Activity calls are given as the source filed them. No cut-off for these calls is given here.

Assays:
[1] = tested on: KB; test: Cytotoxicity against human KB cells by MTT assay; assay type: functional
[2] = Cytotoxicity against human HEPA 59T/VGH cells by MTT assay; assay type: functional; details: read-out: ED50 (the source's name)

| Structure (SMILES) | EC50 ([1]; read-out: ED50 (the source's name)) | EC50 [2] | Activity [1] |
| --- | --- | --- | --- |
| CC(=O)CC[C@@H]1C(=O)C=C(C(C)C)CC[C@@H]1C [GIBBERODIONE] | > 30 µg/mL | > 30 µg/mL | – |
| CC(C)[C@]12C=C3[C@](C)(O)CC[C@]3(OO1)[C@@H](C)CC2 (relative stereo) [PEROXYGIBBEROL] | – | 8.2 µg/mL (≈ 32.5 µM) | inactive |
| C=C1CC/C=C(\C)C[C@H](O)/C(C(C)C)=C\[C@H]2[C@H]1CC[C@]2(C)O [SARCOPHYTOL L] | – | 12.6 µg/mL (≈ 41.4 µM) | inactive |
